Experimental data as given in US11377425B1, “Small molecule modulators of IL-17” (LEO Pharma A/S, priority 2018, dated 2022).
pEC50: −log10 of the molar value.

Biological target: T1, human IL-17AA (Homo sapiens, UniProt Q16552)
T1 construct: host or cells: HEK (human embryonic kidney) cells
T1 sequence (Q16552 24-155): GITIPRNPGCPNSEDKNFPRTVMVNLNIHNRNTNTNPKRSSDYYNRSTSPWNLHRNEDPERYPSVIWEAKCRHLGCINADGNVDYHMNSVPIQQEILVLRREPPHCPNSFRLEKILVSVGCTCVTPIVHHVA
Assay: IL-8 release assay in human epithelial keratinocytes adult (HEKa)
Type: cell-based
Settings: HEKa cells, 3 ng/mL HEK-human IL-17AA + 10 ng/mL human TNFalpha; read-out: Rel EC50 IL-8 release assay
Summary of the method: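 Adult human epidermal keratinocytes stimulated 68-72 h at 37 °C with 3 ng/mL HEK-derived human IL-17AA plus 10 ng/mL TNF-alpha (final) in the presence of compound; TNF-alpha alone defines 100% inhibition. Secreted IL-8 measured by HTRF as percent of controls; relative IC50/Emax from four-parameter fit (r^2>0.9), cytotoxicity by PrestoBlue.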

| pEC50 | SMILES |
| --- | --- |
| > 7.00 | CCn1nccc1C(=O)N[C@H](C(=O)Nc1ccc(-c2c(C3CC3)n[nH]c2C)cc1)C(C1CC1)C1CC1 [Example 392, N-[(1S)-2,2-dicyclopropyl-1-[[4-(3-cyclopropyl-5-methyl-1H-pyrazol-4-yl)phenyl]carbamoyl]ethyl]-2-ethyl-pyrazole-3-carboxamide] |
| > 7.00 | CCc1n[nH]c(CC)c1-c1ccc(NC(=O)[C@@H](NC(=O)c2ccnn2CCCO)C(C2CC2)C2CC2)cc1 [Example 393, N-[(1S)-1-(dicyclopropylmethyl)-2-[4-(3,5-diethyl-1H-pyrazol-4-yl)anilino]-2-oxo-ethyl]-2-(3-hydroxypropyl)pyrazole-3-carboxamide] |
| > 7.00 | CCc1n[nH]c(CC)c1-c1ccc(NC(=O)[C@@H](NC(=O)c2ccnn2[C@@H](C)CO)C(C2CC2)C2CC2)cc1 [Example 394, N-[(1S)-1-(dicyclopropylmethyl)-2-[4-(3,5-diethyl-1H-pyrazol-4-yl)anilino]-2-oxo-ethyl]-2-[(1S)-2-hydroxy-1-methyl-ethyl]pyrazole-3-carboxamide] |
| > 7.00 | CCc1n[nH]c(CC)c1-c1ccc(NC(=O)[C@@H](NC(=O)c2ccnn2[C@H](C)CO)C(C2CC2)C2CC2)cc1 [Example 395, N-[(1S)-1-(dicyclopropylmethyl)-2-[4-(3,5-diethyl-1H-pyrazol-4-yl)anilino]-2-oxo-ethyl]-2-[(1R)-2-hydroxy-1-methyl-ethyl]pyrazole-3-carboxamide] |
| > 7.00 | CCc1n[nH]c(CC)c1-c1ccc(NC(=O)[C@@H](NC(=O)c2ccnn2CC)C(C2CC2)C2CC2)cc1 [Example 396, N-[(1S)-1-(dicyclopropylmethyl)-2-[4-(3,5-diethyl-1H-pyrazol-4-yl)anilino]-2-oxo-ethyl]-2-ethyl-pyrazole-3-carboxamide] |
| > 7.00 | CCCn1nccc1C(=O)N[C@H](C(=O)Nc1ccc(-c2c(CC)n[nH]c2CC)cc1)C(C1CC1)C1CC1 [Example 397, N-[(1S)-1-(dicyclopropylmethyl)-2-[4-(3,5-diethyl-1H-pyrazol-4-yl)anilino]-2-oxo-ethyl]-2-propyl-pyrazole-3-carboxamide] |
| > 7.00 | CCc1n[nH]c(CC)c1-c1ccc(NC(=O)[C@@H](NC(=O)c2ccnn2C)C(C2CC2)C2CC2)cc1 [Example 398, N-[(1S)-1-(dicyclopropylmethyl)-2-[4-(3,5-diethyl-1H-pyrazol-4-yl)anilino]-2-oxo-ethyl]-2-methyl-pyrazole-3-carboxamide] |
| > 7.00 | CCc1n[nH]c(CC)c1-c1ccc(NC(=O)[C@@H](NC(=O)c2ccnn2C(C)C)C(C2CC2)C2CC2)cc1 [Example 399, N-[(1S)-1-(dicyclopropylmethyl)-2-[4-(3,5-diethyl-1H-pyrazol-4-yl)anilino]-2-oxo-ethyl]-2-isopropyl-pyrazole-3-carboxamide] |
| 6.00 to 7.00 | Cc1[nH]ncc1-c1ccc(NC(=O)[C@@H](NC(=O)c2ccnn2C)C(c2ccccc2)c2ccccc2)cc1 [Example 400, N-[(1S)-1-Benzhydryl-2-[4-(3-methyl-1H-pyrazol-4-yl)anilino]-2-oxo-ethyl]-2-methyl-pyrazole-3-carboxamide] |
| 6.00 to 7.00 | CC(C)c1ncn(C)c1-c1ccc(NC(=O)[C@@H](NC(=O)c2ccnn2C(C)C)C(C2CC2)C2CC2)cc1 [Example 401, N-[(1S)-1-(dicyclopropylmethyl)-2-[4-(5-isopropyl-3-methyl-imidazol-4-yl)anilino]-2-oxo-ethyl]-2-isopropyl-pyrazole-3-carboxamide] |
| 6.00 to 7.00 | CC(C)n1nccc1C(=O)N[C@H](C(=O)Nc1ccc(-c2c(C3CC3)ncn2C)cc1)C(C1CC1)C1CC1 [Example 402, N-[(1S)-2,2-dicyclopropyl-1-[[4-(5-cyclopropyl-3-methyl-imidazol-4-yl)phenyl]carbamoyl]ethyl]-2-isopropyl-pyrazole-3-carboxamide] |
| 6.00 to 7.00 | Cc1ncn(C)c1-c1ccc(NC(=O)[C@@H](NC(=O)c2ccnn2C(C)C)C(C2CC2)C2CC2)cc1 [Example 403, N-[(1S)-1-(dicyclopropylmethyl)-2-[4-(3,5-dimethylimidazol-4-yl)anilino]-2-oxo-ethyl]-2-isopropyl-pyrazole-3-carboxamide] |
| 6.00 to 7.00 | Cc1ncccc1-c1ccc(NC(=O)[C@@H](NC(=O)c2ccnn2C(C)C)C(C2CC2)C2CC2)cc1 [Example 404, N-[(1S)-1-(dicyclopropylmethyl)-2-[4-(2-methyl-3-pyridyl)anilino]-2-oxo-ethyl]-2-isopropyl-pyrazole-3-carboxamide] |
| > 7.00 | Cc1cnccc1-c1ccc(NC(=O)[C@@H](NC(=O)c2ccnn2C(C)C)C(C2CC2)C2CC2)cc1 [Example 405, N-[(1S)-1-(dicyclopropylmethyl)-2-[4-(3-methyl-4-pyridyl)anilino]-2-oxo-ethyl]-2-isopropyl-pyrazole-3-carboxamide] |
| 6.00 to 7.00 | CC(C)n1nccc1C(=O)N[C@H](C(=O)Nc1ccc(-c2c(CO)ncn2C)cc1)C(C1CC1)C1CC1 [Example 406, N-[(1S)-1-(dicyclopropylmethyl)-2-[4-[5-(hydroxymethyl)-3-methyl-imidazol-4-yl]anilino]-2-oxo-ethyl]-2-isopropyl-pyrazole-3-carboxamide] |
| 6.00 to 7.00 | CC(C)n1nccc1C(=O)N[C@H](C(=O)Nc1ccc(-c2cccnc2CO)cc1)C(C1CC1)C1CC1 [Example 407, N-[(1S)-1-(dicyclopropylmethyl)-2-[4-[2-(hydroxymethyl)-3-pyridyl]anilino]-2-oxo-ethyl]-2-isopropyl-pyrazole-3-carboxamide] |
| 6.00 to 7.00 | Cc1noc(CO)c1-c1ccc(NC(=O)[C@@H](NC(=O)c2ccnn2C(C)C)C(C2CC2)C2CC2)cc1 [Example 409, N-[(1S)-1-(dicyclopropylmethyl)-2-[4-[5-(hydroxymethyl)-3-methyl-isoxazol-4-yl]anilino]-2-oxo-ethyl]-2-isopropyl-pyrazole-3-carboxamide] |
| > 7.00 | Cc1n[nH]c(C)c1-c1ccc(NC(=O)[C@@H](NC(=O)c2ccnn2C(C)C)C(C2CC2)C2CC2)cc1O [Example 410, N-[(1S)-1-(Dicyclopropylmethyl)-2-[4-(3,5-dimethyl-1H-pyrazol-4-yl)-3-hydroxy-anilino]-2-oxo-ethyl]-2-isopropyl-pyrazole-3-carboxamide] |
| 6.00 to 7.00 | Cc1n[nH]c(C)c1-c1ccc(NC(=O)[C@@H](NC(=O)c2ccnn2C)C(c2ccccc2)c2ccccc2)cc1O [Example 411, N-[(1S)-1-benzhydryl-2-[4-(3,5-dimethyl-1H-pyrazol-4-yl)-3-hydroxy-anilino]-2-oxo-ethyl]-2-methyl-pyrazole-3-carboxamide] |
| > 7.00 | Cc1n[nH]c(C)c1-c1ccc(NC(=O)[C@@H](NC(=O)c2ccnn2C)C2CCCCC2)cc1O [Example 412, N-[(1S)-1-cyclohexyl-2-[4-(3,5-dimethyl-1H-pyrazol-4-yl)-3-hydroxy-anilino]-2-oxo-ethyl]-2-methyl-pyrazole-3-carboxamide] |
| > 7.00 | CCn1nccc1C(=O)N[C@H](C(=O)Nc1ccc(-c2c(C)n[nH]c2C)c(O)c1)C(C1CC1)C1CC1 [Example 413, N-[(1S)-1-(dicyclopropylmethyl)-2-[4-(3,5-dimethyl-1H-pyrazol-4-yl)-3-hydroxy-anilino]-2-oxo-ethyl]-2-ethyl-pyrazole-3-carboxamide] |
| > 7.00 | Cc1n[nH]c(C)c1-c1ccc(NC(=O)[C@@H](NC(=O)c2ccnn2C)C(C2CC2)C2CC2)cc1O [Example 414, N-[(1S)-1-(dicyclopropylmethyl)-2-[4-(3,5-dimethyl-1H-pyrazol-4-yl)-3-hydroxy-anilino]-2-oxo-ethyl]-2-methyl-pyrazole-3-carboxamide] |
| 6.00 to 7.00 | Cc1n[nH]c(C)c1-c1ccc(NC(=O)[C@@H](NC(=O)C2(F)CC2)C(C2CC2)C2CC2)cc1O [Example 415, N-[(1S)-1-(dicyclopropylmethyl)-2-[4-(3,5-dimethyl-1H-pyrazol-4-yl)-3-hydroxy-anilino]-2-oxo-ethyl]-1-fluoro-cyclopropanecarboxamide] |
| > 7.00 | CCn1nccc1C(=O)N[C@H](C(=O)Nc1ccc(-c2c(C)n[nH]c2C)c(O)c1)[C@H]1CC[C@H](C)CC1 [Example 416, N-[(1S)-2-[4-(3,5-dimethyl-1H-pyrazol-4-yl)-3-hydroxy-anilino]-1-(trans-4-methylcyclohexyl)-2-oxo-ethyl]-2-ethyl-pyrazole-3-carboxamide] |
| > 7.00 | Cc1n[nH]c(C)c1-c1ccc(NC(=O)[C@@H](NC(=O)c2ccnn2C(C)C)[C@H]2CC[C@H](C)CC2)cc1O [Example 417, N-[(1S)-2-[4-(3,5-dimethyl-1H-pyrazol-4-yl)-3-hydroxy-anilino]-1-(trans-4-methylcyclohexyl)-2-oxo-ethyl]-2-isopropyl-pyrazole-3-carboxamide] |
| > 7.00 | CCc1n[nH]c(CC)c1-c1ccc(NC(=O)[C@@H](NC(=O)c2ccnn2C(C)C)C(C2CC2)C2CC2)cc1O [Example 418, N-[(1S)-1-(dicyclopropylmethyl)-2-[4-(3,5-diethyl-1H-pyrazol-4-yl)-3-hydroxy-anilino]-2-oxo-ethyl]-2-isopropyl-pyrazole-3-carboxamide] |
| 6.00 to 7.00 | Cn1cncc1-c1ccc(NC(=O)[C@@H](NC(=O)c2ccnn2C)C2CCCCC2)cc1O [Example 419, N-[(1S)-1-Cyclohexyl-2-[3-hydroxy-4-(3-methylimidazol-4-yl)anilino]-2-oxo-ethyl]-2-methyl-pyrazole-3-carboxamide] |
| 6.00 to 7.00 | Cn1cncc1-c1ccc(NC(=O)[C@@H](NC(=O)c2ccnn2C)C(c2ccccc2)c2ccccc2)cc1O [Example 420, N-[(1S)-1-benzhydryl-2-[3-hydroxy-4-(3-methylimidazol-4-yl)anilino]-2-oxo-ethyl]-2-methyl-pyrazole-3-carboxamide] |
